Experimental data published in publication PMC6409085, “Three odorant-binding proteins are involved in the behavioral response of Sogatella furcifera to rice plant volatiles” (PeerJ, 2019).
Several values for one entry are separate records, joined by “and”; a condition that tells them apart may be missing. Identical values can stand only once.

Tests used:
SfurOBP2 = SfurOBP2 (Sogatella furcifera, UniProt V5T759); test: biochemical; format: binding
Procedure, shortened: (§1)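 First, 2.0 µM protein in 50 mM Tris-HCl (pH 7.4) was titrated with 1-NPN to obtain K1-NPN. Then odorants (2–20 µM final) competed against 2.0 µM 1-NPN, with fluorescence (ex 337 nm) recorded after 2 min. Ki was computed from IC50 via Ki = IC50/(1 + [1-NPN]/K1-NPN).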

SfurOBP11 = SfurOBP11 (Sogatella furcifera, UniProt V5T6E3); test: biochemical; format: binding
Sequence of SfurOBP11 (V5T6E3 entry or part of it): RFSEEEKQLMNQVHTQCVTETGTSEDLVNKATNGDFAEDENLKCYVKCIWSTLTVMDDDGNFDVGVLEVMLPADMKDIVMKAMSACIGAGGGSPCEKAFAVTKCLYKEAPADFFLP
Procedure, shortened: as §1

SfurOBP3 = SfurOBP3 (Sogatella furcifera, UniProt V5T818); test: biochemical; format: binding; conditions: for Fluorescence competitive binding assay, fluorescence intensity: OBP3, three replicate columns
Sequence of SfurOBP3 (V5T818 entry or part of it): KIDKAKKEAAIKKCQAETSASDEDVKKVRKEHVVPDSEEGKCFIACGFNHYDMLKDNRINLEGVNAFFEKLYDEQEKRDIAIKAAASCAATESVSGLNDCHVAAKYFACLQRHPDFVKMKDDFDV
Procedure, shortened: as §1

SfurOBP1 = SfurOBP1 (Sogatella furcifera, UniProt V5T8N5); test: biochemical; format: binding; conditions: for Fluorescence competitive binding assay, fluorescence intensity: OBP1, three replicate columns
Sequence of SfurOBP1 (V5T8N5 entry or part of it): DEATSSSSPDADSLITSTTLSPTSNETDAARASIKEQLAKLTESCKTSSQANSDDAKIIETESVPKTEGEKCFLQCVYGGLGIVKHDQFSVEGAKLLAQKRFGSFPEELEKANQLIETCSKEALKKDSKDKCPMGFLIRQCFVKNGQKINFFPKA
Procedure, shortened: as §1

S. furcifera adults = test: Y-tube olfactometer behavioral trials; format: in vivo, Sogatella furcifera; conditions: odorant 50 µL/L vs hexane
Procedure, shortened: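 Single S. furcifera adults (2 days post-emergence, starved 0.5 h) chose between odorant (100 µL of 50 µL/L on filter paper) and hexane control in a glass Y-tube, charcoal-filtered humidified air 300 mL/min per arm, 25 ± 1 °C, 50% RH. Choice scored if insect passed half an arm and stayed >1 min within 10 min; 45 insects per compound, chi-squared test.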

Sequence of SfurOBP2 (V5T759 entry or part of it): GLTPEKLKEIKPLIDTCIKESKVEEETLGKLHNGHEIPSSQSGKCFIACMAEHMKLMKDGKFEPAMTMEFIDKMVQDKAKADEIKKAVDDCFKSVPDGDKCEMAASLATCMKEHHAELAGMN

Compound: CC(=O)/C=C/C1=C(C)CCCC1(C)C [β-Ionone]
- IC50 (SfurOBP2): 20 µM
- Fluorescence competitive binding assay, OBP2 (raw fluorescence reading) (SfurOBP2; ligand concentration 2 (unit not given), replicate column 1 of 3): 20663
- Fluorescence competitive binding assay, OBP2 (raw fluorescence reading) (SfurOBP2; ligand concentration 2 (unit not given), replicate column 2 of 3): 19168
- Fluorescence competitive binding assay, OBP2 (raw fluorescence reading) (SfurOBP2; ligand concentration 2 (unit not given), replicate column 3 of 3): 19828
- Fluorescence competitive binding assay, OBP2 (raw fluorescence reading) (SfurOBP2; ligand concentration 4 (unit not given), replicate column 1 of 3): 20326
- Fluorescence competitive binding assay, OBP2 (raw fluorescence reading) (SfurOBP2; ligand concentration 4 (unit not given), replicate column 2 of 3): 19347
- Fluorescence competitive binding assay, OBP2 (raw fluorescence reading) (SfurOBP2; ligand concentration 4 (unit not given), replicate column 3 of 3): 18863
- Fluorescence competitive binding assay, OBP2 (raw fluorescence reading) (SfurOBP2; ligand concentration 6 (unit not given), replicate column 1 of 3): 19895
- Fluorescence competitive binding assay, OBP2 (raw fluorescence reading) (SfurOBP2; ligand concentration 6 (unit not given), replicate column 2 of 3): 18583
- Fluorescence competitive binding assay, OBP2 (raw fluorescence reading) (SfurOBP2; ligand concentration 6 (unit not given), replicate column 3 of 3): 19617
- Fluorescence competitive binding assay, OBP2 (raw fluorescence reading) (SfurOBP2; ligand concentration 8 (unit not given), replicate column 1 of 3): 17627
- Fluorescence competitive binding assay, OBP2 (raw fluorescence reading) (SfurOBP2; ligand concentration 8 (unit not given), replicate column 2 of 3): 19078
- Fluorescence competitive binding assay, OBP2 (raw fluorescence reading) (SfurOBP2; ligand concentration 8 (unit not given), replicate column 3 of 3): 16731
- Fluorescence competitive binding assay, OBP2 (raw fluorescence reading) (SfurOBP2; ligand concentration 10 (unit not given), replicate column 1 of 3): 16901
- Fluorescence competitive binding assay, OBP2 (raw fluorescence reading) (SfurOBP2; ligand concentration 10 (unit not given), replicate column 2 of 3): 16412
- Fluorescence competitive binding assay, OBP2 (raw fluorescence reading) (SfurOBP2; ligand concentration 10 (unit not given), replicate column 3 of 3): 15901
- Fluorescence competitive binding assay, OBP2 (raw fluorescence reading) (SfurOBP2; ligand concentration 12 (unit not given), replicate column 1 of 3): 15640
- Fluorescence competitive binding assay, OBP2 (raw fluorescence reading) (SfurOBP2; ligand concentration 12 (unit not given), replicate column 2 of 3): 15758
- Fluorescence competitive binding assay, OBP2 (raw fluorescence reading) (SfurOBP2; ligand concentration 12 (unit not given), replicate column 3 of 3): 15363
- Fluorescence competitive binding assay, OBP2 (raw fluorescence reading) (SfurOBP2; ligand concentration 14 (unit not given), replicate column 1 of 3): 13711
- Fluorescence competitive binding assay, OBP2 (raw fluorescence reading) (SfurOBP2; ligand concentration 14 (unit not given), replicate column 2 of 3): 13915
- Fluorescence competitive binding assay, OBP2 (raw fluorescence reading) (SfurOBP2; ligand concentration 14 (unit not given), replicate column 3 of 3): 13962
- Fluorescence competitive binding assay, OBP2 (raw fluorescence reading) (SfurOBP2; ligand concentration 16 (unit not given), replicate column 1 of 3): 12366
- Fluorescence competitive binding assay, OBP2 (raw fluorescence reading) (SfurOBP2; ligand concentration 16 (unit not given), replicate column 2 of 3): 12873
- Fluorescence competitive binding assay, OBP2 (raw fluorescence reading) (SfurOBP2; ligand concentration 16 (unit not given), replicate column 3 of 3): 12910
- Fluorescence competitive binding assay, OBP2 (raw fluorescence reading) (SfurOBP2; ligand concentration 18 (unit not given), replicate column 1 of 3): 12338
- Fluorescence competitive binding assay, OBP2 (raw fluorescence reading) (SfurOBP2; ligand concentration 18 (unit not given), replicate column 2 of 3): 12028
- Fluorescence competitive binding assay, OBP2 (raw fluorescence reading) (SfurOBP2; ligand concentration 18 (unit not given), replicate column 3 of 3): 11737
- Fluorescence competitive binding assay, OBP2 (raw fluorescence reading) (SfurOBP2; ligand concentration 20 (unit not given), replicate column 1 of 3): 11557
- Fluorescence competitive binding assay, OBP2 (raw fluorescence reading) (SfurOBP2; ligand concentration 20 (unit not given), replicate column 2 of 3): 10983
- Fluorescence competitive binding assay, OBP2 (raw fluorescence reading) (SfurOBP2; ligand concentration 20 (unit not given), replicate column 3 of 3): 11423
- IC50 (SfurOBP11): 19.9 µM
- Fluorescence intensity, fluorescence competitive binding assay, OBP11 (SfurOBP11; ligand concentration 2, replicate 1): 28050
- Fluorescence intensity, fluorescence competitive binding assay, OBP11 (SfurOBP11; ligand concentration 2, replicate 2): 27736
- Fluorescence intensity, fluorescence competitive binding assay, OBP11 (SfurOBP11; ligand concentration 2, replicate 3): 27612
- Fluorescence intensity, fluorescence competitive binding assay, OBP11 (SfurOBP11; ligand concentration 4, replicate 1): 28634
- Fluorescence intensity, fluorescence competitive binding assay, OBP11 (SfurOBP11; ligand concentration 4, replicate 2): 28801
- Fluorescence intensity, fluorescence competitive binding assay, OBP11 (SfurOBP11; ligand concentration 4, replicate 3): 26168
- Fluorescence intensity, fluorescence competitive binding assay, OBP11 (SfurOBP11; ligand concentration 6, replicate 1): 26910
- Fluorescence intensity, fluorescence competitive binding assay, OBP11 (SfurOBP11; ligand concentration 6, replicate 2): 26403
- Fluorescence intensity, fluorescence competitive binding assay, OBP11 (SfurOBP11; ligand concentration 6, replicate 3): 26657
- Fluorescence intensity, fluorescence competitive binding assay, OBP11 (SfurOBP11; ligand concentration 8, replicate 1): 23184
- Fluorescence intensity, fluorescence competitive binding assay, OBP11 (SfurOBP11; ligand concentration 8, replicate 2): 24499
- Fluorescence intensity, fluorescence competitive binding assay, OBP11 (SfurOBP11; ligand concentration 8, replicate 3): 24103
- Fluorescence intensity, fluorescence competitive binding assay, OBP11 (SfurOBP11; ligand concentration 10, replicate 1): 21871
- Fluorescence intensity, fluorescence competitive binding assay, OBP11 (SfurOBP11; ligand concentration 10, replicate 2): 21831
- Fluorescence intensity, fluorescence competitive binding assay, OBP11 (SfurOBP11; ligand concentration 10, replicate 3): 22447
- Fluorescence intensity, fluorescence competitive binding assay, OBP11 (SfurOBP11; ligand concentration 12, replicate 1): 20048
- Fluorescence intensity, fluorescence competitive binding assay, OBP11 (SfurOBP11; ligand concentration 12, replicate 2): 20727
- Fluorescence intensity, fluorescence competitive binding assay, OBP11 (SfurOBP11; ligand concentration 12, replicate 3): 21593
- Fluorescence intensity, fluorescence competitive binding assay, OBP11 (SfurOBP11; ligand concentration 14, replicate 1): 17047
- Fluorescence intensity, fluorescence competitive binding assay, OBP11 (SfurOBP11; ligand concentration 14, replicate 2): 18839
- Fluorescence intensity, fluorescence competitive binding assay, OBP11 (SfurOBP11; ligand concentration 14, replicate 3): 19615
- Fluorescence intensity, fluorescence competitive binding assay, OBP11 (SfurOBP11; ligand concentration 16, replicate 1): 15254
- Fluorescence intensity, fluorescence competitive binding assay, OBP11 (SfurOBP11; ligand concentration 16, replicate 2): 16765
- Fluorescence intensity, fluorescence competitive binding assay, OBP11 (SfurOBP11; ligand concentration 16, replicate 3): 16613
- Fluorescence intensity, fluorescence competitive binding assay, OBP11 (SfurOBP11; ligand concentration 18, replicate 1): 17103
- Fluorescence intensity, fluorescence competitive binding assay, OBP11 (SfurOBP11; ligand concentration 18, replicate 2): 17364
- Fluorescence intensity, fluorescence competitive binding assay, OBP11 (SfurOBP11; ligand concentration 18, replicate 3): 18167
- Fluorescence intensity, fluorescence competitive binding assay, OBP11 (SfurOBP11; ligand concentration 20, replicate 1): 16580
- Fluorescence intensity, fluorescence competitive binding assay, OBP11 (SfurOBP11; ligand concentration 20, replicate 2): 17841
- Fluorescence intensity, fluorescence competitive binding assay, OBP11 (SfurOBP11; ligand concentration 20, replicate 3): 17555
- IC50 (SfurOBP3): 12 µM
- Fluorescence competitive binding assay, fluorescence intensity (SfurOBP3; ligand concentration 2): 49137 and 48472 and 49801
- Fluorescence competitive binding assay, fluorescence intensity (SfurOBP3; ligand concentration 4): 47017 and 46358 and 43965
- Fluorescence competitive binding assay, fluorescence intensity (SfurOBP3; ligand concentration 6): 39740 and 42626 and 39389
- Fluorescence competitive binding assay, fluorescence intensity (SfurOBP3; ligand concentration 8): 37430 and 36910 and 36009
- Fluorescence competitive binding assay, fluorescence intensity (SfurOBP3; ligand concentration 10): 35904 and 33157 and 32677
- Fluorescence competitive binding assay, fluorescence intensity (SfurOBP3; ligand concentration 12): 30694 and 33051 and 28374
- Fluorescence competitive binding assay, fluorescence intensity (SfurOBP3; ligand concentration 14): 26192 and 26407 and 26489
- Fluorescence competitive binding assay, fluorescence intensity (SfurOBP3; ligand concentration 16): 23097 and 23904 and 24653
- Fluorescence competitive binding assay, fluorescence intensity (SfurOBP3; ligand concentration 18): 23846 and 23655 and 23476
- Fluorescence competitive binding assay, fluorescence intensity (SfurOBP3; ligand concentration 20): 21994 and 24647 and 23321
- binding affinity to SfurOBP3 (in words) (SfurOBP3; SfurOBP3): high binding affinities
- IC50 (SfurOBP1): > 20 µM
- Fluorescence competitive binding assay, fluorescence intensity (SfurOBP1; ligand concentration 2 (μM)): 7051 and 7963 and 8084
- Fluorescence competitive binding assay, fluorescence intensity (SfurOBP1; ligand concentration 4 (μM)): 8179 and 8456 and 7621
- Fluorescence competitive binding assay, fluorescence intensity (SfurOBP1; ligand concentration 6 (μM)): 7891 and 8214 and 10941
- Fluorescence competitive binding assay, fluorescence intensity (SfurOBP1; ligand concentration 8 (μM)): 7486 and 8333 and 7729
- Fluorescence competitive binding assay, fluorescence intensity (SfurOBP1; ligand concentration 10 (μM)): 7166 and 7631 and 8078
- Fluorescence competitive binding assay, fluorescence intensity (SfurOBP1; ligand concentration 12 (μM)): 13786 and 8045 and 7592
- Fluorescence competitive binding assay, fluorescence intensity (SfurOBP1; ligand concentration 14 (μM)): 7676 and 7139 and 7314
- Fluorescence competitive binding assay, fluorescence intensity (SfurOBP1; ligand concentration 16 (μM)): 6374 and 6355 and 6393
- Fluorescence competitive binding assay, fluorescence intensity (SfurOBP1; ligand concentration 18 (μM)): 6677 and 6433 and 6722
- Fluorescence competitive binding assay, fluorescence intensity (SfurOBP1; ligand concentration 20 (μM)): 6744 and 6442 and 6578
- behavioral response of S. furcifera (in words) (S. furcifera adults): strongly attracted
- number of insects choosing hexane arm (S. furcifera adults; adults): 18
- number of insects choosing volatilies arm (S. furcifera adults; adults): 10
- number of insects failed (no choice) (S. furcifera adults; adults): 12
